“Also recorded” adds a separate entry of the source. Starred links: 1 amine or outer side, 2 acyl side, 3 side chain; linkers in the order of their positions; H or OH if unused. Positions of bridges follow the written chain, without caps; N, C: chain ends. Non-standard residues stand in square brackets, D forms with d. Residues, ends and D or L forms follow the SMILES beside them. *: point of attachment. X1 = COCCOCCOCCOCCOCCOCCOCCOCCOCCOCCOCC(=O)N[C@@H](CCCCN*)C(=O)NCCOCCOCCOCCOCCOCCOCCOCCOCCOCCOCCOCCOCCC(=O)NCCOCCOCCOCCOCCOCCOCCOCCOCCOCCOCCOCCOCCC(=O)N[C@@H](CCCCNC(=O)CCN1C(=O)CC(C)C1=O)C(N)=O; 2Nal = N[C@@H](Cc1ccc2ccccc2c1)C(=O)O; Gly(cPent) = N[C@H](C(=O)O)C1CCCC1; Agb = N=C(N)NCC[C@H](N)C(=O)O; hCys = N[C@@H](CCS)C(=O)O; CH2 = C([*:1])[*:2]
Experiments:
[1] = tested on: C57BL/6 mice, ischemic limb blood flow; test: Blood flow improvement measurement tests (femoral artery/vein ligation and excision, laser Doppler); type: in vivo, mouse; conditions: for blood flow AUC, % of vehicle group mean: blood flow AUC from beginning to end of measurement, ratio to vehicle-treated group mean; for %, ischemia/nonischemia (blood flow on the last day of measurement): mean ± standard error, ratio of ischemic limb flow to non-ischemic limb flow
Description: Six to seven-week-old C57BL/6 mice were purchased from Charles River Laboratories Japan Inc., and acclimated over six days by feeding with a FR-2 solid diet (produced by Funabashi Farm Co., Ltd.). The rearing facility switched between light and dark modes in a 12-hour cycle with light turning on at 7 a.m. and turning off at 7 p.m. Under isoflurane inhalation anaesthesia, the left thighs of the mice were dissected, and the superficial femoral arteries and veins (from just below the deep femoral arteries to the popliteal artery and vein) were ligated and excised. […] Five mice were used for each treatment group.
Blood flows were measured in ischemic (left) and non-ischemic (right) limbs using a laser Doppler perfusion imager (PeriScan PIM III, Moor LD12-HR). The improvement of blood flow was evaluated by the ratio of ischemic limb flow to non-ischemic limb flow. […] In addition, blood flow AUC was calculated to determine the ratio (%) of the mean value of the test substance-treated group to the mean value of the vehicle-treated group.

[2] = Serum stability test, monkey serum; type: in vitro ADME, cynomolgus monkey; conditions: male, residual ratio: IS ratio at 4 hours relative to 0 hours, 37° C.
Description: (§1) • Mouse serum (BALB/c CrSlc, male, Japan SLC, Inc.) • Monkey serum (cynomolgus monkey, male, Japan SLC, Inc.) • Human serum (Caucasian, pool of 5 males and 5 females, KAC Co., Ltd.) • Phenacetin (Nacalai Tesque, Inc.) • Niflumic acid (Nacalai Tesque, Inc.) • Furosemide (Nacalai Tesque, Inc.) • Acetonitrile (FUJIFILM Wako Pure Chemical Corporation) • Methanol (FUJIFILM Wako Pure Chemical Corporation) • Formic acid (FUJIFILM Wako Pure Chemical Corporation) • Dimethyl sulfoxide (DMSO) (FUJIFILM Wako Pure Chemical Corporation)
(§2) Solutions of Phenacetin, niflumic acid, and furosemide were prepared in DMSO at 10 μg/ml, 150 μg/ml, and 200 μg/ml, respectively. 10 μg/ml of phenacetin in DMSO, 150 μg/ml of niflumic acid in DMSO, and 200 μg/ml of furosemide in DMSO were dissolved in a mixture of […]/methanol (75/25, v/v) (final concentrations: phenacetin; 1 ng/mL, niflumic acid: 15 ng/mL, and furosemide 20 ng/mL), and formic acid was added to the prepared test solution (final concentration: 1% (v/v)) to prepare a formic acid-containing IS solution.
(§3) The test substances were prepared in DMSO to a concentration of 10 mM each. Further, the solution was diluted with DMSO to a concentration of 2 mM to make a test substance solution.
(§4) Each serum was preincubated at 37° C. for 5 minutes, and then the test substance solution was added to a final concentration of 20 μM to initiate the reaction. The test substance-added serum was incubated at 37° C. At 0 and 4 hours after the start of the reaction, a portion of the serum was taken out and added to the formic acid-containing IS solution to stop the reaction, which was used as a measurement sample.
(§5) The test substance and IS (phenacetin, niflumic acid, and furosemide) in the measurement sample were measured by LC-MS/MS, and the peak area ratio (IS ratio) of the test substance to IS (any of phenacetin, niflumic acid, and furosemide) was calculated.
(§6) The percentage of the IS ratio at 4 hours after the start of the reaction relative to that at 0 hours after the start of the reaction was used as a residual ratio to evaluate serum stability.

[3] = Serum stability test, human serum; type: in vitro ADME; conditions: both sexes, residual ratio: IS ratio at 4 hours relative to 0 hours, 37° C.
Description: as §1, §2, §3, §4, §5, §6

[4] = Serum stability test, mouse serum; type: in vitro ADME; conditions: for remaining at 4 h, 20 μM: male, BALB/c CrSlc, mouse, mouse serum, residual ratio: IS ratio at 4 hours relative to 0 hours, 37° C.; for serum stability (in words): statement covers mouse, monkey and human serum, 4 hours
Description: as §1, §2, §3, §4, §5, §6

Row | SMILES | blood flow AUC, % of vehicle group mean ([1]; 0.3 mg/kg) | %, ischemia/nonischemia (blood flow on the last day of measurement) ([1]; 0.3 mg/kg) | blood flow AUC, % of vehicle group mean ([1]; 1 mg/kg) | %, ischemia/nonischemia (blood flow on the last day of measurement) ([1]; 1 mg/kg) | remaining at 4 h, 20 μM [2] | remaining at 4 h, 20 μM [3] | remaining at 4 h, 20 μM [4] | serum stability (in words) [4]
1 | COCCOCCOCCOCCOCCOCCOCCOCCOCCOCCOCC(=O)N[C@@H](CCCCNC(=O)[C@H](CC(=O)O)NC(=O)[C@H](CC(=O)O)NC(=O)CNC(=O)CNC(=O)CNC(=O)CNC(=O)[C@@H]1CSCC(=O)N[C@@H](Cc2ccc3ccccc3c2)C(=O)N[C@H](CCCNC(=N)N)C(=O)N[C@H]2CCSSCC[C@H](NC(=O)[C@H](Cc3c[nH]c4ccccc34)NC(=O)[C@@H](CC(=O)O)NC(=O)[C@H](CCCNC(=N)N)NC(=O)CNC2=O)C(=O)N[C@H](CCCNC(=N)N)C(=O)N[C@@H](Cc2c[nH]c3ccccc23)C(=O)N[C@@H](C2CCCC2)C(=O)N1)C(=O)NCCOCCOCCOCCOCCOCCOCCOCCOCCOCCOCCOCCOCCC(=O)NCCOCCOCCOCCOCCOCCOCCOCCOCCOCCOCCOCCOCCC(=O)N[C@@H](CCCCNC(=O)CCN1C(=O)CC(C)C1=O)C(N)=O (some centres unmarked) [Conjugate-4] ({CH2CO}-[2Nal][dR][hCys]GR[dD]W[hCys][dR]W[Gly(cPent)]CGGGGDD-X1; disulfide 3-8; thioether N-12) | 263.9% | 54.5 ± 10.2% | 346.8% | 76.1 ± 11.2% |  |  |  | 
2 | N=C(N)NCCC[C@@H]1NC(=O)[C@H](Cc2ccc3ccccc3c2)NC(=O)CSC[C@@H](C(N)=O)NC(=O)[C@H](C2CCCC2)NC(=O)[C@H](Cc2c[nH]c3ccccc23)NC(=O)[C@H](CCCNC(=N)N)NC(=O)[C@@H]2CCSSCC[C@H](NC1=O)C(=O)NCC(=O)N[C@@H](CCNC(=N)N)C(=O)N[C@@H](CC(=O)O)C(=O)N[C@@H](Cc1c[nH]c3ccccc13)C(=O)N2 [Peptide-9] ({CH2CO}-[2Nal]R[hCys]G[Agb]DW[hCys]RW[Gly(cPent)]C-NH2; disulfide 3-8; thioether N-12) |  |  |  |  | 93% | 118% | 95.8% | high serum stability; also recorded: higher serum stability
3 | N=C(N)NCCC[C@@H]1NC(=O)CNC(=O)[C@@H]2CCSSCC[C@H](NC(=O)[C@H](Cc3c[nH]c4ccccc34)NC(=O)[C@H](CC(=O)O)NC1=O)C(=O)N[C@@H](CCCNC(=N)N)C(=O)N[C@@H](Cc1c[nH]c3ccccc13)C(=O)N[C@@H](C1CCCC1)C(=O)N[C@H](C(N)=O)CSCC(=O)N[C@@H](Cc1ccc3ccccc3c1)C(=O)N[C@@H](CCCNC(=N)N)C(=O)N2 [Peptide-11] ({CH2CO}-[2Nal]R[hCys]GRDW[hCys]RW[Gly(cPent)]C-NH2; disulfide 3-8; thioether N-12) |  |  |  |  | 89.9% | 105% | 88% | high serum stability
4 | CC(C)[C@@H]1NC(=O)[C@H](Cc2c[nH]c3ccccc23)NC(=O)[C@H](CC(N)=O)NC(=O)[C@H](CCNC(=N)N)NC(=O)CNC(=O)[C@H](CO)NC(=O)[C@H](CCCNC(=N)N)NC(=O)[C@H](Cc2ccc3ccccc3c2)NC(=O)CSC[C@@H](C(N)=O)NC(=O)[C@H](C2CCCC2)NC(=O)[C@H](Cc2c[nH]c3ccccc23)NC(=O)[C@H](CCCNC(=N)N)NC1=O [Peptide-115] ({CH2CO}-[2Nal]RSG[Agb]NWVRW[Gly(cPent)]C-NH2; thioether N-12) |  |  |  |  | 14.9% | 78.2% | 64.5% | 
5 | CC(C)[C@@H]1NC(=O)[C@H](Cc2c[nH]c3ccccc23)NC(=O)[C@H](CC(=O)O)NC(=O)[C@H](CCNC(=N)N)NC(=O)CNC(=O)[C@H](CO)NC(=O)[C@H](CCCNC(=N)N)NC(=O)[C@H](Cc2ccc3ccccc3c2)NC(=O)CSC[C@@H](C(N)=O)NC(=O)[C@H](C2CCCC2)NC(=O)[C@H](Cc2c[nH]c3ccccc23)NC(=O)[C@H](CCCNC(=N)N)NC1=O [Peptide-119] |  |  |  |  | 21.1% | 88.5% | 70.9% | 
6 | N=C(N)NCCC[C@@H]1NC(=O)CNC(=O)[C@@H]2CSSCC[C@H](NC(=O)[C@H](Cc3c[nH]c4ccccc34)NC(=O)[C@H](CC(=O)O)NC1=O)C(=O)N[C@@H](CCCNC(=N)N)C(=O)N[C@@H](Cc1c[nH]c3ccccc13)C(=O)N[C@@H](C1CCCC1)C(=O)N[C@H](C(N)=O)CSCC(=O)N[C@@H](Cc1ccc3ccccc3c1)C(=O)N[C@@H](CCCNC(=N)N)C(=O)N2 [Peptide-126] ({CH2CO}-[2Nal]RCGRDW[hCys]RW[Gly(cPent)]C-NH2; disulfide 3-8; thioether N-12) |  |  |  |  | 100% | 99.6% | 98.3% | 
7 | N=C(N)NCCC[C@@H]1NC(=O)CNC(=O)[C@@H]2CCSCSCC[C@H](NC(=O)[C@H](Cc3c[nH]c4ccccc34)NC(=O)[C@H](CC(=O)O)NC1=O)C(=O)N[C@@H](CCCNC(=N)N)C(=O)N[C@@H](Cc1c[nH]c3ccccc13)C(=O)N[C@@H](C1CCCC1)C(=O)N[C@H](C(N)=O)CSCC(=O)N[C@@H](Cc1ccc3ccccc3c1)C(=O)N[C@@H](CCCNC(=N)N)C(=O)N2 [Peptide-127] ({CH2CO}-[2Nal]R[hCys]GRDW[hCys]RW[Gly(cPent)]C-NH2; linker 3-8 via CH2; thioether N-12) |  |  |  |  | 95.1% | 97.5% | 90% | 
8 | N=C(N)NCCC[C@@H]1NC(=O)CNC(=O)[C@@H]2CSSC[C@H](NC(=O)[C@H](Cc3c[nH]c4ccccc34)NC(=O)[C@H](CC(=O)O)NC1=O)C(=O)N[C@@H](CCCNC(=N)N)C(=O)N[C@@H](Cc1c[nH]c3ccccc13)C(=O)N[C@@H](C1CCCC1)C(=O)N[C@H](C(N)=O)CSCC(=O)N[C@@H](Cc1ccc3ccccc3c1)C(=O)N[C@@H](CCCNC(=N)N)C(=O)N2 [Peptide-128] ({CH2CO}-[2Nal]RCGRDWCRW[Gly(cPent)]C-NH2; disulfide 3-8; thioether N-12) |  |  |  |  | 98.6% | 99% | 98.1% | 
9 | N=C(N)NCCC[C@@H]1NC(=O)CNC(=O)[C@@H]2CSCSC[C@H](NC(=O)[C@H](Cc3c[nH]c4ccccc34)NC(=O)[C@H](CC(=O)O)NC1=O)C(=O)N[C@@H](CCCNC(=N)N)C(=O)N[C@@H](Cc1c[nH]c3ccccc13)C(=O)N[C@@H](C1CCCC1)C(=O)N[C@H](C(N)=O)CSCC(=O)N[C@@H](Cc1ccc3ccccc3c1)C(=O)N[C@@H](CCCNC(=N)N)C(=O)N2 [Peptide-130] ({CH2CO}-[2Nal]RCGRDWCRW[Gly(cPent)]C-NH2; linker 3-8 via CH2; thioether N-12) |  |  |  |  | 93.5% | 88% | 98% | high serum stability
10 | N=C(N)NCCC[C@@H]1NC(=O)CNC(=O)[C@@H]2CSCSCC[C@H](NC(=O)[C@H](Cc3c[nH]c4ccccc34)NC(=O)[C@H](CC(=O)O)NC1=O)C(=O)N[C@@H](CCCNC(=N)N)C(=O)N[C@@H](Cc1c[nH]c3ccccc13)C(=O)N[C@@H](C1CCCC1)C(=O)N[C@H](C(N)=O)CSCC(=O)N[C@@H](Cc1ccc3ccccc3c1)C(=O)N[C@@H](CCCNC(=N)N)C(=O)N2 [Peptide-131] ({CH2CO}-[2Nal]RCGRDW[hCys]RW[Gly(cPent)]C-NH2; linker 3-8 via CH2; thioether N-12) |  |  |  |  | 89.2% | 101% | 89.2% | high serum stability

Source: US20250228958A1, “TSP1 INHIBITOR” (Daiichi Sankyo Company, Limited, priority 2022, published 2025)
